Laboratory results: ChEMBL document CHEMBL1201862, “PubChem BioAssay data set” (2004)
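Method: 48-hour compound exposure of cells in 96-well plates, five concentrations, linear interpolation of endpoints. At the GI50, growth is halved.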 The source made the active and inactive calls. Cut-off read from the data, not from the text of the source: active = GI50 up to about 1.1 µM and inactive = higher.

Legend:
Assay in all cases: NCI tumour cell line growth inhibition, 48 h
A498 = test system: A498
CCRF-CEM = test system: CCRF-CEM
HOP-92 = test system: HOP-92
HT-29 = test system: HT-29
K562 = test system: K562
MOLT-4 = test system: MOLT-4
NCI-H522 = test system: NCI-H522
RXF 393 = test system: RXF 393
SF-268 = test system: SF-268
SF-539 = test system: SF-539
SK-MEL-28 = test system: SK-MEL-28
SK-OV-3 = test system: SK-OV-3
SN12C = test system: SN12C
UO-31 = test system: UO-31
CAKI-1 = test system: CAKI-1
RPMI-8226 = test system: RPMI-8226
TK-10 = test system: TK-10

Row | Structure (SMILES) | GI50 (A498) | GI50 (CCRF-CEM) | GI50 (HOP-92) | GI50 (HT-29) | GI50 (K562) | GI50 (MOLT-4) | GI50 (NCI-H522) | GI50 (RXF 393) | GI50 (SF-268) | GI50 (SF-539) | GI50 (SK-MEL-28) | GI50 (SK-OV-3) | GI50 (SN12C) | GI50 (UO-31) | GI50 (CAKI-1) | GI50 (RPMI-8226) | GI50 (TK-10)
1 | CC(C)=CCC/C(=C/CC/C(C)=C/CCc1ccoc1)C(=O)O | > 100 µM (inactive) | > 100 µM (inactive) | > 100 µM (inactive) | > 100 µM (inactive) | > 100 µM (inactive) | > 100 µM (inactive) | > 100 µM (inactive) | > 100 µM (inactive) | > 100 µM (inactive) | > 100 µM (inactive) | > 100 µM (inactive) | > 100 µM (inactive) | > 100 µM (inactive) | > 100 µM (inactive) |  |  | 
2 | BrC12c3ccccc3Sc3ccccc3C1(Br)c1ccccc12 (stereo not drawn) | 22.9 µM (inactive) | 4.93 µM (inactive) | 19.8 µM (inactive) | 34.8 µM (inactive) | 22.2 µM (inactive) | 10.7 µM (inactive) | 17.5 µM (inactive) | 34.2 µM (inactive) | 32.4 µM (inactive) | 18.3 µM (inactive) |  | 42.1 µM (inactive) | 25.8 µM (inactive) | 33 µM (inactive) | 26.1 µM (inactive) | 13.5 µM (inactive) | 35.6 µM (inactive)
3 | CN1CCC(CN2c3ccccc3Sc3ccccc32)CC1 | 15.6 µM (inactive) | 16.3 µM (inactive) | 5.69 µM (inactive) | 12.7 µM (inactive) | 13.5 µM (inactive) | 15.5 µM (inactive) | 14.9 µM (inactive) | 3.07 µM (inactive) | 15.4 µM (inactive) | 14.9 µM (inactive) | 11 µM (inactive) | 16.5 µM (inactive) | 19.1 µM (inactive) | 10.1 µM (inactive) | 4.93 µM (inactive) | 12.7 µM (inactive) | 15.7 µM (inactive)
4 | CCSc1c2ccccc2c(-c2nc(F)nc(F)n2)n1CCc1ccccc1 | 86.5 µM (inactive) | 36.2 µM (inactive) | > 100 µM (inactive) | > 100 µM (inactive) | > 100 µM (inactive) | 56.4 µM (inactive) | > 100 µM (inactive) | > 100 µM (inactive) | > 100 µM (inactive) | > 100 µM (inactive) | > 100 µM (inactive) |  | > 100 µM (inactive) | > 100 µM (inactive) | > 100 µM (inactive) | > 100 µM (inactive) | > 100 µM (inactive)
5 | CC(C)c1ccc2c(c1)CCC1C(C)(C)[C@@H](O)CC[C@]21C (stereo partly drawn) |  | 27.9 µM (inactive) | 23.5 µM (inactive) | 16.3 µM (inactive) | 24.9 µM (inactive) | 22.1 µM (inactive) | 25 µM (inactive) | 21.1 µM (inactive) | 39 µM (inactive) | 22.3 µM (inactive) | 44.5 µM (inactive) | 68.7 µM (inactive) | 20.9 µM (inactive) | 69.5 µM (inactive) | 50.1 µM (inactive) | 21.2 µM (inactive) | 54 µM (inactive)
6 | O=c1[nH]c(=O)n(C2OC(COP(=O)(O)OP(=O)(O)O)C(O)C2O)cc1F (stereo not drawn) | 6.25 µM (inactive) | 0.817 µM (active) | > 50 µM (inactive) | 0.716 µM (active) | 0.184 µM (active) | 0.877 µM (active) | 2.48 µM (inactive) | 2.57 µM (inactive) | 0.298 µM (active) | 0.594 µM (active) | 2.13 µM (inactive) | 3.92 µM (inactive) | 0.916 µM (active) | 6.08 µM (inactive) | 0.368 µM (active) | 0.436 µM (active) | 15.6 µM (inactive)
7 | COC1C2C[C@@H](O)CCC2C(C(=O)OCCl)C[C@H]1O (stereo partly drawn) | > 100 µM (inactive) | > 100 µM (inactive) |  |  | > 100 µM (inactive) | > 100 µM (inactive) | > 100 µM (inactive) | > 100 µM (inactive) | > 100 µM (inactive) | > 100 µM (inactive) | > 100 µM (inactive) | > 100 µM (inactive) | > 100 µM (inactive) | > 100 µM (inactive) | > 100 µM (inactive) | > 100 µM (inactive) | > 100 µM (inactive)
8 | CCOC(=O)N1CCC(=O)C[C@@H]1C/C=C/P1(=O)O[C@H](c2ccccc2)C(C)N1C(C)C (stereo partly drawn) |  |  | > 100 µM (inactive) | > 100 µM (inactive) | > 100 µM (inactive) | > 100 µM (inactive) | > 100 µM (inactive) | > 100 µM (inactive) | > 100 µM (inactive) | > 100 µM (inactive) | > 100 µM (inactive) | > 100 µM (inactive) | > 100 µM (inactive) | > 100 µM (inactive) | > 100 µM (inactive) | > 100 µM (inactive) | > 100 µM (inactive)
9 | CC(=O)OC1CCCn2c1nc1c2C(=O)C(C)=C(N2CC2)C1=O (stereo not drawn) | 0.161 µM (active) | 3.51 µM (inactive) | 27.8 µM (inactive) | 0.208 µM (active) | 0.891 µM (active) | 19.4 µM (inactive) | 0.156 µM (active) | 0.284 µM (active) | 0.251 µM (active) | 0.519 µM (active) | 0.522 µM (active) | 0.364 µM (active) | 0.308 µM (active) | 0.605 µM (active) | 0.296 µM (active) | 1.07 µM (active) | 2.75 µM (inactive)
